Results published in patent publication US11028103B2, “Derivatized 3-styryl-cephalosporins” (priority 2013, dated 2021).
pIC50: −log10 of the molar value.

Tests used:
Assay type in all cases: biochemical
IMP-1 = biological target: T1, IMP-1 (Serratia marcescens, UniProt P52699); experiment: 10 minute IC50 β-lactamase inhibition assay (Chromacef hydrolysis); settings: 10 min preincubation, 300 μM Chromacef, pH 7.0, 30° C.
T1 construct: made in house
Description: (§1) A chromogenic cephalosporin, Chromacef, is synthesized and isolated as described by Yu, et al. (Yu S; Vosbeek, A; Corbella, K; Severson, J; Schesser, J; and Sutton, L D. A chromogenic cephalosporin for fJ-lactamase inhibitor screening assays (2012) Analytical Biochemistry, 438, 96-98) and used to monitor β-lactamase activity. β-Lactamase enzymes are isolated from bacteria by methods known to those knowledgeable in the art. A typical assay monitors the hydrolysis of Chromacef via the formation of a species which absorbs maximally at 442 nm (molar extinction coefficient=14,500). Absorption is monitored as a function of time in buffer (either 50 mM, pH 7.0 sodium phosphate or 100 mM, pH 7.0 Trisma buffer supplemented with 100 μM ZnCl2), 100-300 μM Chromacef and 1-3 volume percent DMSO cosolvent at 30° C. using a spectrophotometer having thermal-regulated cuvette holder. The assay is initiated by addition and mixing of an appropriate amount of β-lactamase.
(§2) The 100% activity control is performed as described above using 300 μM Chromacef, 3 volume percent DMSO cosolvent in buffer (either 50 mM, pH 7.0 sodium phosphate or 100 mM, pH 7.0 Trisma buffer supplemented with 100 μM ZnCl2) at 30° C. The reaction is initiated by addition and mixing of an appropriate amount of β-lactamase and the formation of product is followed as a function of time by monitoring the increase in absorbance at 442 nm as a function of time. The reaction is followed through <10% completeness and the initial rate determined via linear least squares analysis where the slope is the initial rate.
(§3) Ten-minute inhibition assays are performed as described above using 50-500 μM inhibitor cephalosporin, 0.5-5 volume percent DMSO cosolvent, and the same amount of enzyme as used in the control assay in buffer (either 50 mM, pH 7.0 sodium phosphate or 100 mM, pH 7.0 Trisma buffer supplemented with 100 μM ZnCl2) at 30° C. The reaction is initiated by after 10 minutes points by the addition and mixing of an appropriate amount of Chromacef to give a 300 μM concentration and the formation of product is followed as a function of time by monitoring the increase in absorbance at 442 nm as a function of time. The reaction is followed through <10% completeness and the initial rate determined via linear least squares analysis where the slope is the initial rate.

KPC-3 = biological target: T2, KPC-3 (Klebsiella pneumoniae, UniProt Q9F663, H272Y); experiment: as above; settings: 10 min preincubation, 300 μM Chromacef, pH 7.0, 30° C.
T2 construct: made in house
T2 sequence (Q9F663 25-293 H272Y): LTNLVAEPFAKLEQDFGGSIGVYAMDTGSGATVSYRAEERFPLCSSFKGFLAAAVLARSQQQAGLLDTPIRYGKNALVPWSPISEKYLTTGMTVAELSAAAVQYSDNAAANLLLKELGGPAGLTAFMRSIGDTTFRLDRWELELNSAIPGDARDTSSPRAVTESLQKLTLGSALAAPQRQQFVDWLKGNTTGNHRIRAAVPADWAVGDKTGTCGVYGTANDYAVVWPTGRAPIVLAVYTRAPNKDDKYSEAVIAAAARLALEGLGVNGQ
Description: as §1, §2, §3

NDM-1 [1] = biological target: T3, NDM-1 (Klebsiella pneumoniae, UniProt C7C422); experiment: as above; settings: 10 min preincubation, 300 μM Chromacef, pH 7.0, 30° C.
T3 construct: made in house
T3 sequence (C7C422 29-270, looked up, species assumed): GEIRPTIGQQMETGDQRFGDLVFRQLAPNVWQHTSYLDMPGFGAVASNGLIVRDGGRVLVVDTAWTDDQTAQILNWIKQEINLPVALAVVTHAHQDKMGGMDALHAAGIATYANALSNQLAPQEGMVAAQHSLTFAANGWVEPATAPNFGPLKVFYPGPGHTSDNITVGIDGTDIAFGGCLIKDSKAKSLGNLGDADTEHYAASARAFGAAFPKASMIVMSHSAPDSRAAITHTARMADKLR
Description: as §1, §2, §3

NDM-1 [2] = biological target: T3, NDM-1; experiment: Assay for determining irreversible β-lactamase inhibition (500-fold dilution); settings: FIG. 2
Experimental: as §2
Inhibition of β-lactamase was performed at a concentration of β-lactamase 500 times greater than used in the control assay, and 50-500 μM cephalosporin inhibitor, buffer (either 50 mM, pH 7.0 sodium phosphate or 100 mM, pH 7.0 Trisma buffer supplemented with 100 μM ZnCl2), 0.5-5 volume percent DMSO cosolvent for various times. Activity assays were performed the same as the control reaction except 2.00 μL of this inhibition solution were substituted for the uninhibited enzyme solution resulting in a 500-fold dilution of inhibitor to eliminate any competitive binding of inhibitor to enzyme.

VIM-2 = biological target: T4, VIM-2 (Escherichia coli, UniProt Q5U7L7); experiment: 10 minute IC50 β-lactamase inhibition assay (Chromacef hydrolysis); settings: 10 min preincubation, 300 μM Chromacef, pH 7.0, 30° C.
T4 construct: made in house
Description: as §1, §2, §3

T1 sequence (P52699 19-246, looked up, species assumed): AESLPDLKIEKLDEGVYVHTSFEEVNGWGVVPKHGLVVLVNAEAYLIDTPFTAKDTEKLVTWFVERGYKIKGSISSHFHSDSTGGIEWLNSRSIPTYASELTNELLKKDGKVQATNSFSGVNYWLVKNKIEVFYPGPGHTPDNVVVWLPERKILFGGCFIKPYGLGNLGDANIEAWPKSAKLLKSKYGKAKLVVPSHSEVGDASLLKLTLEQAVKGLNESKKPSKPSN

SMILES	pIC50 (IMP-1)	pIC50 (KPC-3)	pIC50 (NDM-1 [1])	irreversibility of the inhibition (NDM-1 [2]; activity after 500-fold dilution of inhibitor)	time-dependency of the inhibition (NDM-1 [2]; various incubation times)	pIC50 (VIM-2)
O=C(Cc1ccccc1)NC1C(=O)N2C(C(=O)O)=C(C=Cc3ccc(CCl)cc3[N+](=O)[O-])CS[C@H]12 (some centres unmarked) [III-Cl/benzyl, 3-(2-nitro-4-(chloromethyl)styryl)-7-(2-phenylacetamido)-ceph-3-em-4-carboxylic acid]	6.23	6.01	6.23	irreversibility of the inhibition	time-dependency of the inhibition	–
O=C(Cc1ccccc1)NC1C(=O)N2C(C(=O)O)=C(C=Cc3ccc(CCl)cc3)CS[C@H]12 (some centres unmarked) [II-Cl/benzyl, 3-(4-(chloromethyl)styryl)-7-(2-phenylacetamido)-ceph-3-em-4-carboxylic acid]	4.21	–	5.19	–	–	4.97
